# Laboratory results: patent US20040147739A1, “Novel anti-infectives” (priority 2003, published 2004)
# Biological target: T1, HCV NS5B (Hepatitis C virus genotype 1b, UniProt P26663)
# T1 construct: The NS5B protein (591 amino acids, 65 kDa) of HCV
# Test: biochemical
# Details: not given
# Experimental: The activity of the inventive compounds as inhibitors of HCV activity may be measured by any of the suitable methods known to those skilled in the art, including in vivo and in vitro assays. For example, the HCV NS5B inhibitory activity of the compounds of Formulas I, II and III was determined using standard assay procedures described in Behrens et al., EMBO J. 15:12-22 (1996), Lohmann et al., Virology 249:108-118 (1998) and Ranjith-Kumar et al., J. Virology 75:8615-8623 (2001).
# The HCV NS5B inhibitory activity of the compounds of Formulas I, II m and IV was determined using standard procedures well known to those skilled in the art and described in, for example Behrens et al., EMBO J. 15:12-22 (1996), Lohmann et al., Virology 249:108-118 (1998) and Ranjith-Kumar et al., J. Virology 75:8615-8623 (2001).
# T1 sequence (P26663 2420-3010): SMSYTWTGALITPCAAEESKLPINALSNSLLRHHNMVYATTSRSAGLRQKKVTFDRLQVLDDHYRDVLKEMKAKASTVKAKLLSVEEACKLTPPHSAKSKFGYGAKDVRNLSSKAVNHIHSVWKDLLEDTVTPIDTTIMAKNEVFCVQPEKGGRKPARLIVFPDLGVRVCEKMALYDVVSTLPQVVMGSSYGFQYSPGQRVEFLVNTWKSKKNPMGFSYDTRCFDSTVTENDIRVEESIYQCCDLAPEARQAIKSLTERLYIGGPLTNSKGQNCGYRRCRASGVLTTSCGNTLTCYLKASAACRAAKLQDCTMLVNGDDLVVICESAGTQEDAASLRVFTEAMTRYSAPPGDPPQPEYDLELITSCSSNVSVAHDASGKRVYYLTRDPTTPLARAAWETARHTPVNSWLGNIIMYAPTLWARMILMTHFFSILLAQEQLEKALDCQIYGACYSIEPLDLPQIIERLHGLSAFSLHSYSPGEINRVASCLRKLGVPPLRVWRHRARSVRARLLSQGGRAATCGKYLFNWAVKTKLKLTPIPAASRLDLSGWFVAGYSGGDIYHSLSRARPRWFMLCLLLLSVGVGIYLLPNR
row,Structure (SMILES),IC50 [µM]
1,"O=c1c(C2=Nc3ccccc3S(=O)(=O)N2)c(O)c2ccccc2n1Cc1ccccc1[N+](=O)[O-] [Example 196, 3-(1,1-Dioxo-1,4-dihydro-1-benzo[1,2,4]thiadiazin-3-yl)-4-hydroxy-1-(2-nitro-benzyl)-1H-quinolin-2-one]",> 10
2,"CN(C)CCn1c(=O)c(C2=Nc3ccccc3S(=O)(=O)N2)c(O)c2ccccc21 [Example 190, 1-(2-Dimethylamino-ethyl)-3-(1,1-dioxo-1,4-dihydro-1-benzo[1,2,4]thiadiazin-3-yl)-4-hydroxy-1H-quinolin-2-one]",> 10
3,"CC(C)CCn1c(=O)c(C2=Nc3ccccc3S(=O)(=O)N2)c(O)c2ccc(Br)cc21 [Example 173, 7-bromo-3-(1,1-dioxo-1,2-dihydrobenzo[1,2,4]thiadiazin-3-yl)-4-hydroxy-1-(3-methylbutyl)-1H-quinolin-2-one]",> 10
4,"CCOC(=O)CCCn1c(=O)c(C2=NS(=O)(=O)c3ccccc3N2)c(O)c2ccccc21 [Example 182, 4-[3-(1,1-Dioxo-1,4-dihydro-1-benzo[1,2,4]thiadiazin-3-yl)-4-hydroxy-2-oxo-2H-quinolin-1-yl]-butyric acid ethyl ester]",> 10
5,"COc1ccc(C(=O)Nc2ccc3c(c2)c(O)c(C2=NS(=O)(=O)c4ccccc4N2)c(=O)n3CCC(C)C)cc1 [Example 37, N-[3-(1,1-Dioxo-1,4-dihydrobenzo[1,2,4]thiadiazin-3-yl)-4-hydroxy-1-(3-methylbutyl)-2-oxo-1,2dihydroquinolin-6-yl]4-methoxybenzamide]",> 10
6,"CC(C)CCn1c(=O)c(C2=NS(=O)(=O)c3ccccc3N2)c(O)c2c(C(=O)O)cccc21 [Example 188, 3-(1,1-Dioxo-1,4-dihydro-1-benzo[1,2,4]thiadiazin-3-yl)-4-hydroxy-1-(3-methylbutyl)-2-oxo-1,2-dihydro-quinoline-5-carboxylic acid]",> 10
7,"CC(C)CCn1c(=O)c(C2=Nc3ccccc3S(=O)(=O)N2)c(O)c2ccc(C(=O)O)cc21 [Example 171, 3-(1,1-Dioxo-1,2-dihydrobenzo[1,2,4]thiadiazin-3-yl)-4-hydroxy-1-(3-methylbutyl)-2-oxo-1,2-dihydro-quinoline-7-carboxylic acid]",> 10
8,"N#Cc1ccccc1Cn1c(=O)c(C2=Nc3ccccc3S(=O)(=O)N2)c(O)c2ccccc21 [Example 2, 3-(1,1-Dioxo-1,2-dihydrobenzo[1,2,4]thiadiazin-3-yl)-4-hydroxy-1-(2-cyanobenzyl)-1H-quinolin-2-one]",> 10
9,"O=c1c(C2=NS(=O)(=O)c3ccccc3N2)c(O)c2ccccc2n1CCO [Example 193, 3-(1,1-Dioxo-1,4-dihydro-1-benzo[1,2,4]thiadiazin-3-yl)-4-hydroxy-1-(2-hydroxyethyl)-1H-quinolin-2-one]",> 10
10,"CC(C)CCc1cccc2c(O)c(C3=NS(=O)(=O)c4ccccc4N3)c(=O)[nH]c12 [Example 186, 3-(1,1-Dioxo-1,4-dihydro-1-benzo[1,2,4]thiadiazin-3-yl)-4-hydroxy-8-(3-methylbutyl)-1H-quinolin-2-one]",> 10
11,"Cc1ccc(F)cc1Cn1c(=O)c(C2=NS(=O)(=O)c3ccccc3N2)c(O)c2ccccc21 [Example 195, 3-(1,1-Dioxo-1,4-dihydro-1-benzo[1,2,4]thiadiazin-3-yl)-1-(5-fluoro-2-methyl-benzyl)4-hydroxy-1H-quinolin-2-one]",> 10
12,"NC(=O)CCCn1c(=O)c(C2=Nc3ccccc3S(=O)(=O)N2)c(O)c2ccccc21 [Example 170, 4-[3-(1,1-Dioxo-1,2-dihydrobenzo[1,2,4]thiadiazin-3-yl)-4-hydroxy-2-oxoquinolin-1-yl]butyramide]",> 10
13,"COc1ccc(CCNC(=O)c2ccc3c(c2)S(=O)(=O)N=C(c2c(O)c4ccccc4n(CCC4CC4)c2=O)N3)cc1 [Example 102, 3-[1-(2-Cyclopropylethyl)-4-hydroxy-2-oxo-1,2-dihydroquinolin-3-yl]-1,1-dioxo-1,4 dihydroenzo[1,2,4]thiadiazine-7-carboxylic acid [2-(4-methoxyphenyl)ethyl]amide]",> 10
14,"CC(C)CCn1c(=O)c(C2=NS(=O)(=O)c3ccccc3N2)c(O)c2cc(I)ccc21 [Example 185, 3-(1,1-Dioxo-1,4-dihydro-1-benzo[1,2,4]thiadiazin-3-yl)-4-hydroxy-6-iodo-1-(3-methylbutyl)-1H-quinolin-2-one]",> 10
15,O=c1c(C2=NS(=O)(=O)c3ccccc3N2)c(O)c2ccccc2n1CCCc1ccccc1 [Example 3],> 10
16,O=c1c(C2=NS(=O)(=O)c3ccccc3N2)c(O)c2ccccc2n1CCc1ccccc1 [Example 1],> 10
17,"O=C(O)CCCn1c(=O)c(C2=Nc3ccccc3S(=O)(=O)N2)c(O)c2ccccc21 [Example 183, 4-[3-(1,1-Dioxo-1,4-dihydro-1-benzo[1,2,4]thiadiazin-3-yl)-4-hydroxy-2-oxo-2H-quinolin-1-yl]-butyric acid]",> 10

# Same assay, conditions: screening rate of 10 uM
row,Structure (SMILES),biological activity at the screening rate of 10 uM
1,"NCCCCn1c(=O)c(C2=Nc3ccccc3S(=O)(=O)N2)c(O)c2ccccc21 [Example 200, 1-(4-Aminobutyl)-3-(1,1-dioxo-1,2-dihydrobenzo[1,2,4]thiadiazin-3-yl)-4-hydroxy-1-1H-quinolin-2-one]",did not demonstrate biological activity
2,"CC(C)CCn1c(=O)c(C2=NS(=O)(=O)c3ccccc3N2)c(O)c2ccc(/C=C/C(N)=O)cc21 [Example 204, (E)-3-[3-(1,1-Dioxo-1,4-dihydro-1-benzo[1,2,4]thiadiazin-3-yl)-4-hydroxy-1-(3-methylbutyl)-2-oxo-1,2-dihydro-quinolin-7-yl]acrylamide]",did not demonstrate biological activity
3,"CC(C)(C)c1ccc(Cn2c(=O)c(C3=NS(=O)(=O)c4ccccc4N3)c(O)c3ccccc32)cc1 [Example 208, 1-(4-tert-Butylbenzyl)-3-(1,1-dioxo-1,4-dihydro-1-benzo[1,2,4]thiadiazin-3-yl)-4-hydroxy-1H-quinolin-2-one]",did not demonstrate biological activity
4,"CC(C)CCOc1ccc2c(c1)c(O)c(C1=NS(=O)(=O)c3ccccc3N1)c(=O)n2CC(=O)OC(C)(C)C [Example 205, [3-(1,1-Dioxo-1,4-dihydro-1-benzo[1,2,4]thiadiazin-3-yl)-4-hydroxy-6-(3-methyl-butoxy)-2-oxo-2H-quinolin-1-yl]acetic acid tert-butyl ester]",did not demonstrate biological activity
5,"CC(C)CCn1c(=O)c(C2=Nc3ccccc3S(=O)(=O)N2)c(O)c2ccc(Cl)cc21 [Example 199, 7-Chloro-3-(1,1-dioxo-1,2-dihydrobenzo[1,2,4]thiadiazin-3-yl)-4-hydroxy-1-(3-methylbutyl)-H-quinolin-2-one]",did not demonstrate biological activity
6,"CC(C)CCn1c(=O)c(C2=Nc3ccccc3S(=O)(=O)N2)c(O)c2ccc([N+](=O)[O-])cc21 [Example 198, 3-(1,1-Dioxo-1,2-dihydrobenzo[1,2,4]thiadiazin-3-yl)-4-hydroxy-1-(3-methylbutyl)-7-nitro-1H-quinolin-2-one]",did not demonstrate biological activity
7,"O=c1c(C2=Nc3ccccc3S(=O)(=O)N2)c(O)c2ccccc2n1-c1ccccc1 [Example 201, 3-(1,1-Dioxo-1,2-dihydrobenzo[1,2,4]thiadiazin-3-yl)-4-hydroxy-1-phenyl-1H-quinolin-2-one]",did not demonstrate biological activity
